# In US20230331731A1, “CRYSTAL FORM OF PYRROLO HETEROCYCLIC DERIVATIVE AND PREPARATION METHOD THEREFOR” (Jiangsu Hengrui Pharmaceuticals Co., Ltd., priority 2020, published 2023):
# Legend:
# [1] = Influencing factor stability study; assay type: physicochemical; conditions: for physical and chemical stability (conclusion): high-temperature conditions (40° C. and 60° C.) and high-humidity conditions (75% and 92.5%)
# [2] = Long-term/accelerated stability study; assay type: physicochemical; conditions: for physical and chemical stability (conclusion): long-term and accelerated stability conditions; for Purity, 1 month / physical and chemical stability (conclusion) / Crystal form: 1 month
# Protocol: 1. The hydrobromide in crystal form α was left to stand under 25° C., 60% RH conditions and 40° C., 75% RH conditions to investigate its stability.
# 4. The fumarate in crystal form II was subjected to 6-month long-term (25° C., 60% RH) and accelerated (40° C., 75% RH) stability studies.
smiles,measurement,setting,value
Cn1nccc1Nc1nccc(-c2cc3n(c2)C(=O)N([C@H](CO)c2cccc(Cl)c2)C3)n1.Cn1nccc1Nc1nccc(-c2cc3n(c2)C(=O)N([C@H](CO)c2cccc(Cl)c2)C3)n1.O=C(O)/C=C/C(=O)O [Fumarate in crystal form IV],Color and appearance,"[1]; 40° C., open, 7 days",Pale yellow solid
same,Crystal form,"[1]; 40° C., open, 7 days",Did not change
same,Main peak purity,"[1]; 40° C., open, 7 days",99.46%
same,Color and appearance,"[1]; 40° C., open, 14 days",Pale yellow solid
same,Crystal form,"[1]; 40° C., open, 14 days",Did not change
same,Main peak purity,"[1]; 40° C., open, 14 days",99.47%
same,Color and appearance,"[1]; 40° C., open, 30 days",Pale yellow solid
same,Crystal form,"[1]; 40° C., open, 30 days",Did not change
same,Main peak purity,"[1]; 40° C., open, 30 days",99.26%
same,Color and appearance,"[1]; 60° C., open, 7 days",Pale yellow solid
same,Crystal form,"[1]; 60° C., open, 7 days",Did not change
same,Main peak purity,"[1]; 60° C., open, 7 days",99.45%
same,Color and appearance,"[1]; 60° C., open, 14 days",Pale yellow solid
same,Crystal form,"[1]; 60° C., open, 14 days",Did not change
same,Main peak purity,"[1]; 60° C., open, 14 days",99.46%
same,Color and appearance,"[1]; 60° C., open, 30 days",Pale yellow solid
same,Crystal form,"[1]; 60° C., open, 30 days",Did not change
same,Main peak purity,"[1]; 60° C., open, 30 days",99.23%
same,Color and appearance,"[1]; 75% RH, open, 7 days",Pale yellow solid
same,Crystal form,"[1]; 75% RH, open, 7 days",Did not change
same,Main peak purity,"[1]; 75% RH, open, 7 days",99.52%
same,Color and appearance,"[1]; 75% RH, open, 14 days",Pale yellow solid
same,Crystal form,"[1]; 75% RH, open, 14 days",Did not change
same,Main peak purity,"[1]; 75% RH, open, 14 days",99.43%
same,Color and appearance,"[1]; 75% RH, open, 30 days",Pale yellow solid
same,Crystal form,"[1]; 75% RH, open, 30 days",Did not change
same,Main peak purity,"[1]; 75% RH, open, 30 days",99.36%
same,Color and appearance,"[1]; 92.5% RH, open, 7 days",Pale yellow solid
same,Crystal form,"[1]; 92.5% RH, open, 7 days",Did not change
same,Main peak purity,"[1]; 92.5% RH, open, 7 days",99.47%
same,Color and appearance,"[1]; 92.5% RH, open, 14 days",Pale yellow solid
same,Crystal form,"[1]; 92.5% RH, open, 14 days",Did not change
same,Main peak purity,"[1]; 92.5% RH, open, 14 days",99.45%
same,Color and appearance,"[1]; 92.5% RH, open, 30 days",Pale yellow solid
same,Crystal form,"[1]; 92.5% RH, open, 30 days",Did not change
same,Main peak purity,"[1]; 92.5% RH, open, 30 days",99.40%
same,Color and appearance,"[1]; 4500 Lux, open, 7 days",Pale yellow solid
same,Crystal form,"[1]; 4500 Lux, open, 7 days",Did not change
same,Main peak purity,"[1]; 4500 Lux, open, 7 days",99.43%
same,Color and appearance,"[1]; 4500 Lux, open, 14 days",Pale yellow solid
same,Crystal form,"[1]; 4500 Lux, open, 14 days",Did not change
same,Main peak purity,"[1]; 4500 Lux, open, 14 days",99.29%
same,Color and appearance,"[1]; 4500 Lux, open, 30 days",Pale yellow solid
same,Crystal form,"[1]; 4500 Lux, open, 30 days",Did not change
same,Main peak purity,"[1]; 4500 Lux, open, 30 days",99.19%
same,Color and appearance,"[1]; Initial, 0 days",Pale yellow solid
same,Crystal form,"[1]; Initial, 0 days",Crystal form IV
same,Main peak purity,"[1]; Initial, 0 days",99.47%
same,physical and chemical stability (conclusion),[1]; 30 days,relatively good physical and chemical stability
same,"Purity, 1 month","[2]; 25° C., 60%RH",99.40%
same,"Purity, 1 month","[2]; 40° C., 75%RH",99.34%
same,"Purity, Initial",[2],99.46%
same,physical and chemical stability (conclusion),[2],good physical and chemical stability
Br.Cn1nccc1Nc1nccc(-c2cc3n(c2)C(=O)N([C@H](CO)c2cccc(Cl)c2)C3)n1 [Hydrobromide in crystal form α],Color and appearance,"[1]; 40° C., open, 7 days",Off-white solid
same,Crystal form,"[1]; 40° C., open, 7 days",Did not change
same,Main peak purity,"[1]; 40° C., open, 7 days",99.42%
same,Color and appearance,"[1]; 40° C., open, 14 days",Off-white solid
same,Crystal form,"[1]; 40° C., open, 14 days",Did not change
same,Main peak purity,"[1]; 40° C., open, 14 days",99.32%
same,Color and appearance,"[1]; 40° C., open, 30 days",Off-white solid
same,Crystal form,"[1]; 40° C., open, 30 days",Did not change
same,Main peak purity,"[1]; 40° C., open, 30 days",99.28%
same,Color and appearance,"[1]; 60° C., open, 7 days",Off-white solid
same,Crystal form,"[1]; 60° C., open, 7 days",Did not change
same,Main peak purity,"[1]; 60° C., open, 7 days",99.38%
same,Color and appearance,"[1]; 60° C., open, 14 days",Off-white solid
same,Crystal form,"[1]; 60° C., open, 14 days",Did not change
same,Main peak purity,"[1]; 60° C., open, 14 days",98.99%
same,Color and appearance,"[1]; 60° C., open, 30 days",Off-white solid
same,Crystal form,"[1]; 60° C., open, 30 days",Did not change
same,Main peak purity,"[1]; 60° C., open, 30 days",99.02%
same,Color and appearance,"[1]; 75% RH, open, 7 days",Off-white solid
same,Crystal form,"[1]; 75% RH, open, 7 days",Did not change
same,Main peak purity,"[1]; 75% RH, open, 7 days",99.41%
same,Color and appearance,"[1]; 75% RH, open, 14 days",Off-white solid
same,Crystal form,"[1]; 75% RH, open, 14 days",Did not change
same,Main peak purity,"[1]; 75% RH, open, 14 days",99.30%
same,Color and appearance,"[1]; 75% RH, open, 30 days",Off-white solid
same,Crystal form,"[1]; 75% RH, open, 30 days",Did not change
same,Main peak purity,"[1]; 75% RH, open, 30 days",99.31%
same,Color and appearance,"[1]; 92.5% RH, open, 7 days",Off-white solid
same,Crystal form,"[1]; 92.5% RH, open, 7 days",Did not change
same,Main peak purity,"[1]; 92.5% RH, open, 7 days",99.39%
same,Color and appearance,"[1]; 92.5% RH, open, 14 days",Off-white solid
same,Crystal form,"[1]; 92.5% RH, open, 14 days",Did not change
same,Main peak purity,"[1]; 92.5% RH, open, 14 days",99.42%
same,Color and appearance,"[1]; 92.5% RH, open, 30 days",Off-white solid
same,Crystal form,"[1]; 92.5% RH, open, 30 days",Did not change
same,Main peak purity,"[1]; 92.5% RH, open, 30 days",99.28%
same,Color and appearance,"[1]; 4500 Lux, open, 7 days",Off-white solid
same,Crystal form,"[1]; 4500 Lux, open, 7 days",Did not change
same,Main peak purity,"[1]; 4500 Lux, open, 7 days",99.09%
same,Color and appearance,"[1]; 4500 Lux, open, 14 days",Off-white solid
same,Crystal form,"[1]; 4500 Lux, open, 14 days",Did not change
same,Main peak purity,"[1]; 4500 Lux, open, 14 days",98.94%
same,Color and appearance,"[1]; 4500 Lux, open, 30 days",Off-white solid
same,Crystal form,"[1]; 4500 Lux, open, 30 days",Did not change
same,Main peak purity,"[1]; 4500 Lux, open, 30 days",98.50%
same,physical and chemical stability (conclusion),[1]; 30 days,relatively good physical and chemical stability
same,Crystal form,"[2]; 25° C., 60%RH",α
same,"Purity, 1 month","[2]; 25° C., 60%RH",99.33%
same,Crystal form,"[2]; 40° C., 75%RH",α
same,"Purity, 1 month","[2]; 40° C., 75%RH",99.24%
same,"Purity, Initial",[2],99.43%
same,physical and chemical stability (conclusion),[2],good physical and chemical stability
Br.Br.Cn1nccc1Nc1nccc(-c2cc3n(c2)C(=O)N([C@H](CO)c2cccc(Cl)c2)C3)n1 [Hydrobromide in crystal form β],Color and appearance,"[1]; 40° C., open, 7 days",Off-white solid
same,Crystal form,"[1]; 40° C., open, 7 days",Did not change
same,Main peak purity,"[1]; 40° C., open, 7 days",99.13%
same,Color and appearance,"[1]; 40° C., open, 14 days",Off-white solid
same,Crystal form,"[1]; 40° C., open, 14 days",Did not change
same,Main peak purity,"[1]; 40° C., open, 14 days",99.07%
same,Color and appearance,"[1]; 40° C., open, 30 days",Off-white solid
same,Crystal form,"[1]; 40° C., open, 30 days",Did not change
same,Main peak purity,"[1]; 40° C., open, 30 days",98.96%
same,Color and appearance,"[1]; 60° C., open, 7 days",Off-white solid
same,Crystal form,"[1]; 60° C., open, 7 days",Did not change
same,Main peak purity,"[1]; 60° C., open, 7 days",98.82%
same,Color and appearance,"[1]; 60° C., open, 14 days",Off-white solid
same,Crystal form,"[1]; 60° C., open, 14 days",Did not change
same,Main peak purity,"[1]; 60° C., open, 14 days",98.82%
same,Color and appearance,"[1]; 60° C., open, 30 days",Off-white solid
same,Crystal form,"[1]; 60° C., open, 30 days",Did not change
same,Main peak purity,"[1]; 60° C., open, 30 days",98.88%
same,Color and appearance,"[1]; 75% RH, open, 7 days",Off-white solid
same,Crystal form,"[1]; 75% RH, open, 7 days",Did not change
same,Main peak purity,"[1]; 75% RH, open, 7 days",99.13%
same,Color and appearance,"[1]; 75% RH, open, 14 days",Off-white solid
same,Crystal form,"[1]; 75% RH, open, 14 days",Did not change
same,Main peak purity,"[1]; 75% RH, open, 14 days",99.11%
same,Color and appearance,"[1]; 75% RH, open, 30 days",Off-white solid
same,Crystal form,"[1]; 75% RH, open, 30 days",Did not change
same,Main peak purity,"[1]; 75% RH, open, 30 days",99.11%
same,Color and appearance,"[1]; 92.5% RH, open, 7 days",Off-white solid
same,Crystal form,"[1]; 92.5% RH, open, 7 days",Did not change
same,Main peak purity,"[1]; 92.5% RH, open, 7 days",99.09%
same,Color and appearance,"[1]; 92.5% RH, open, 14 days",Off-white solid
same,Crystal form,"[1]; 92.5% RH, open, 14 days",Did not change
same,Main peak purity,"[1]; 92.5% RH, open, 14 days",99.15%
same,Color and appearance,"[1]; 92.5% RH, open, 30 days",Off-white solid
same,Crystal form,"[1]; 92.5% RH, open, 30 days",Did not change
same,Main peak purity,"[1]; 92.5% RH, open, 30 days",98.93%
same,Color and appearance,"[1]; 4500 Lux, open, 7 days",Off-white solid
same,Crystal form,"[1]; 4500 Lux, open, 7 days",Did not change
same,Main peak purity,"[1]; 4500 Lux, open, 7 days",98.99%
same,Color and appearance,"[1]; 4500 Lux, open, 14 days",Off-white solid
same,Crystal form,"[1]; 4500 Lux, open, 14 days",Did not change
same,Main peak purity,"[1]; 4500 Lux, open, 14 days",98.54%
same,Color and appearance,"[1]; 4500 Lux, open, 30 days",Off-white solid
same,Crystal form,"[1]; 4500 Lux, open, 30 days",Did not change
same,Main peak purity,"[1]; 4500 Lux, open, 30 days",98.28%
same,Color and appearance,"[1]; Initial, 0 days",Off-white solid
same,Crystal form,"[1]; Initial, 0 days",Crystal form β
same,Main peak purity,"[1]; Initial, 0 days",99.12%
same,physical and chemical stability (conclusion),[1]; 30 days,relatively good physical and chemical stability
same,Crystal form,"[2]; 25° C., 60%RH",β
same,"Purity, 1 month","[2]; 25° C., 60%RH",98.99%
same,Crystal form,"[2]; 40° C., 75%RH",β
same,"Purity, 1 month","[2]; 40° C., 75%RH",99.00%
same,"Purity, Initial",[2],99.17%
same,physical and chemical stability (conclusion),[2],good physical and chemical stability
